Structures can show the parent of a compound that is named as a salt.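 Growth conditions: 96-well plates. Treatment: test compound, 48 hours, 5 concentrations. Analysis: linear interpolation between bracketing concentrations; unreached endpoints set to highest concentration. GI50 is the concentration that inhibits growth by half.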 Calls of active or inactive are those of the source. Cut-off read from the data, not from the text of the source: active = GI50 up to about 1.1 µM and inactive = higher.

Among the test systems are ACHN; BT-549; CCRF-CEM; COLO 205; EKVX; HCT-116; HCT-15; K562; MCF7; MDA-MB-435; MOLT-4; NCI-H23; NCI-H522; PC-3; RPMI-8226; SF-295; SK-MEL-5; SK-OV-3; SNB-75; T47D.
What all share (experiment): NCI-60 cell line screen, 48 h

On to `CC[C@@H]1C(=O)OC[C@@H]1Cc1cncn1C` [PILOCARPINE HYDROCHLORIDE], for which the GI50 in the experiment on ACHN, with BT-549, in the experiment with CCRF-CEM, in the experiment with COLO 205, in the experiment on EKVX and in the experiment with HCT-116 was > 100 µM (inactive) each time. Moreover, the GI50 was above 100 µM with HCT-15; > 100 µM (inactive) in the experiment on K562; > 100 µM (inactive) with MCF7; > 100 µM (inactive) in the experiment with MDA-MB-435; > 100 µM (inactive) in the experiment with MOLT-4; > 100 µM (inactive) in the experiment on NCI-H23. The GI50 with NCI-H522, in the experiment on PC-3, in the experiment on RPMI-8226, in the experiment on SF-295, in the experiment with SK-MEL-5 and in the experiment on SK-OV-3 was > 100 µM (inactive) in each case. The GI50 in the experiment with SNB-75 and in the experiment on T47D was > 100 µM (inactive) each time.

Take `CN1CCN(Cc2cc3c(nn2)-c2ccccc2C3=O)CC1`: the GI50 with ACHN was 26.2 µM (inactive); with BT-549 it was 53.6 µM (inactive); with CCRF-CEM it was 54.6 µM (inactive); with COLO 205 it was 17.7 µM (inactive); in the experiment on EKVX it was 46.3 µM (inactive); in the experiment on HCT-116, 30.4 µM (inactive). The GI50 was 26.2 µM in the experiment on HCT-15; 47.1 µM (inactive) in the experiment on K562; 30.8 µM (inactive) with MCF7; 23.7 µM (inactive) in the experiment on MDA-MB-435; 38.7 µM (inactive) with MOLT-4; 35 µM (inactive) in the experiment with NCI-H23. In addition, the GI50 in the experiment with NCI-H522 is 14.3 µM (inactive); in the experiment on PC-3, 37.8 µM (inactive); in the experiment on RPMI-8226, > 100 µM (inactive); with SF-295, > 100 µM (inactive); in the experiment with SK-MEL-5, 16.9 µM (inactive); in the experiment on SK-OV-3, > 100 µM (inactive). Moreover, the GI50 in the experiment on SNB-75 was > 100 µM (inactive); in the experiment on T47D it was 49 µM (inactive).

Regarding `O=C1CCCC(=O)N1n1c(Cc2ccc(Cl)cc2)n[nH]c1=O`, the GI50 in the experiment on ACHN, in the experiment with BT-549, in the experiment with CCRF-CEM, in the experiment with COLO 205, in the experiment with EKVX and with HCT-116 was > 100 µM (inactive) throughout. Further, the GI50 with HCT-15 is above 100 µM; in the experiment with K562, > 100 µM (inactive); in the experiment with MCF7, > 100 µM (inactive); in the experiment on MDA-MB-435, > 100 µM (inactive); with MOLT-4, > 100 µM (inactive); in the experiment with NCI-H23 it was > 100 µM (inactive). For the same compound, the GI50 with NCI-H522, in the experiment on PC-3, in the experiment with RPMI-8226, in the experiment with SF-295, in the experiment with SK-MEL-5 and with SK-OV-3 was > 100 µM (inactive) in each case. In addition, the GI50 in the experiment on SNB-75 and with T47D was > 100 µM (inactive) throughout.

In the case of `CCOC(=O)c1c(NC(=O)c2cccs2)sc2c1CCCC2`, the GI50 in the experiment on ACHN is > 68.1 µM (inactive); in the experiment with BT-549, 58.7 µM (inactive); in the experiment with CCRF-CEM it was > 100 µM (inactive); with COLO 205, > 100 µM (inactive); in the experiment with EKVX, 54.8 µM (inactive); with HCT-116, 46.9 µM (inactive). In addition, the GI50 is above 100 µM in the experiment with HCT-15; > 100 µM (inactive) with K562; > 79.6 µM (inactive) with MCF7; > 100 µM (inactive) in the experiment on MDA-MB-435; > 100 µM (inactive) in the experiment on MOLT-4; 48.3 µM (inactive) in the experiment on NCI-H23. The GI50 in the experiment with NCI-H522 was 39.9 µM (inactive); in the experiment with PC-3, 54.8 µM (inactive); in the experiment on RPMI-8226 it was > 100 µM (inactive); with SF-295, 27.3 µM (inactive); in the experiment with SK-MEL-5, > 100 µM (inactive); in the experiment on SK-OV-3, 25.5 µM (inactive). Besides, the GI50 in the experiment on SNB-75 is 5.68 µM (inactive); in the experiment on T47D, 30.6 µM (inactive).

In the case of `COc1ccc2nc3cc(Cl)ccc3c(NCCCNCCCNc3c4ccc(Cl)cc4nc4ccc(OC)cc34)c2c1`, the GI50 in the experiment with ACHN is < 0.01 µM (active); in the experiment on BT-549, 0.21 µM (active); in the experiment with CCRF-CEM it was < 0.01 µM (active); in the experiment on COLO 205, < 0.011 µM (active); in the experiment on EKVX it was 0.137 µM (active); with HCT-116, < 0.01 µM (active). The GI50 with HCT-15 is 0.0174 µM; in the experiment with K562, < 0.01 µM (active); with MCF7, 0.012 µM (active); in the experiment with MDA-MB-435, 0.0374 µM (active); in the experiment on MOLT-4, 0.329 µM (active); in the experiment with NCI-H23 it was 0.0181 µM (active). Also, the GI50 in the experiment with NCI-H522 was 0.0128 µM (active); in the experiment on PC-3, 0.0241 µM (active); in the experiment with RPMI-8226, 0.0826 µM (active); in the experiment on SF-295 it was < 0.01 µM (active); in the experiment on SK-MEL-5 it was 0.0247 µM (active); with SK-OV-3 it was 0.0352 µM (active). Moreover, the GI50 in the experiment with SNB-75 was 0.0299 µM (active); in the experiment on T47D, 0.0625 µM (active).

With `CC(SCc1ccccc1)C(=O)O` (stereo unspecified), the GI50 in the experiment with ACHN, with BT-549, in the experiment with CCRF-CEM, in the experiment with COLO 205, in the experiment on EKVX and with HCT-116 was > 100 µM (inactive) each time. In addition, the GI50 in the experiment on HCT-15 was above 100 µM; in the experiment with K562, > 100 µM (inactive); in the experiment on MCF7, > 100 µM (inactive); with MDA-MB-435, > 100 µM (inactive); with MOLT-4, > 100 µM (inactive); in the experiment on NCI-H23, > 100 µM (inactive). The GI50 with NCI-H522, with PC-3, in the experiment on RPMI-8226, with SF-295, in the experiment on SK-MEL-5 and with SK-OV-3 was > 100 µM (inactive) in each case. For the same compound, the GI50 with SNB-75 and with T47D was > 100 µM (inactive) in each case.

On to `C1CC2CN(CCCN3CCOCC3)C(C1)O2` (stereo unspecified), for which the GI50 in the experiment on ACHN is > 100 µM (inactive); with BT-549 it was > 100 µM (inactive); in the experiment on COLO 205, > 100 µM (inactive); with EKVX, > 100 µM (inactive); in the experiment on HCT-116, > 100 µM (inactive); in the experiment with HCT-15, above 100 µM. Also, the GI50 in the experiment with K562, in the experiment with MCF7, in the experiment with MDA-MB-435, with MOLT-4, in the experiment with NCI-H23 and in the experiment on NCI-H522 was > 100 µM (inactive) throughout. Besides, the GI50 with PC-3, in the experiment on RPMI-8226, in the experiment with SF-295, in the experiment on SK-MEL-5, in the experiment on SK-OV-3 and in the experiment with SNB-75 was > 100 µM (inactive) throughout. In addition, in the experiment on T47D, the GI50 was > 100 µM (inactive).

For the compound `CC(=O)NC1CCC(NC(=O)OC(C)(C)C)C(NC(=O)OC(C)(C)C)C1` (stereo unspecified), the GI50 in the experiment on ACHN was > 100 µM (inactive); with BT-549, > 100 µM (inactive); with CCRF-CEM it was > 100 µM (inactive); with COLO 205, > 100 µM (inactive); in the experiment on HCT-116 it was > 100 µM (inactive); in the experiment on HCT-15, above 100 µM. The GI50 in the experiment on K562, in the experiment with MCF7, in the experiment with MDA-MB-435, in the experiment on MOLT-4, in the experiment on NCI-H23 and with NCI-H522 was > 100 µM (inactive) in each case. The GI50 with PC-3, with RPMI-8226, with SF-295, with SK-MEL-5, with SK-OV-3 and in the experiment with SNB-75 was > 100 µM (inactive) throughout. The GI50 in the experiment with T47D is > 100 µM (inactive).

Turning to `O=C(Nn1cnn2c(=O)c3ccccc3nc2c1=O)c1ccccc1`, the GI50 in the experiment on ACHN, in the experiment with BT-549, in the experiment with CCRF-CEM, in the experiment with COLO 205, with EKVX and in the experiment on HCT-116 was > 100 µM (inactive) each time. Moreover, the GI50 in the experiment with HCT-15 was above 100 µM; in the experiment with K562 it was > 100 µM (inactive); in the experiment on MCF7, > 100 µM (inactive); with MDA-MB-435, > 100 µM (inactive); in the experiment on NCI-H23, > 100 µM (inactive); in the experiment on NCI-H522, > 100 µM (inactive). The GI50 with PC-3, with RPMI-8226, with SF-295, with SK-MEL-5, in the experiment on SK-OV-3 and in the experiment on SNB-75 was > 100 µM (inactive) in each case. In the experiment with T47D, the GI50 was > 100 µM (inactive).

As for `CCCc1cn2c(/C=N/NC(=N)N)c(-c3cccc([N+](=O)[O-])c3)nc2s1`, the GI50 in the experiment on ACHN was 1.79 µM (inactive); with BT-549, 1.57 µM (inactive); in the experiment with CCRF-CEM, 0.746 µM (active); in the experiment on COLO 205 it was 1.88 µM (inactive); in the experiment on HCT-116 it was 2.27 µM (inactive); in the experiment on HCT-15 it was 1.84 µM. The GI50 with K562 was 1.58 µM (inactive); in the experiment with MCF7 it was 2.48 µM (inactive); with MDA-MB-435, 1.76 µM (inactive); in the experiment on MOLT-4, 1.23 µM (inactive); in the experiment with NCI-H23, 1.78 µM (inactive); with NCI-H522, 1.98 µM (inactive). The GI50 is 2.59 µM (inactive) in the experiment on PC-3; 1.8 µM (inactive) in the experiment with RPMI-8226; 1.84 µM (inactive) in the experiment with SF-295; 1.98 µM (inactive) with SK-MEL-5; 2.22 µM (inactive) in the experiment on SK-OV-3; 1.56 µM (inactive) in the experiment with SNB-75. For the same compound, the GI50 in the experiment on T47D was 1.94 µM (inactive).
